Data from publication PMC8698070, “The Zoonotic Helminth Parasite Fasciola hepatica: Virulence-Associated Cathepsin B and Cathepsin L Cysteine Peptidases Secreted by Infective Newly Excysted Juveniles (NEJ)” (Animals : an Open Access Journal from MDPI, 2021).
“Also recorded” adds a separate entry of the source. Where a SMILES comes first, the peptide text is derived from it. The star is where a group is joined. Cbz = O=C(OCc1ccccc1)*; CH2F = FC*

What was measured:
[1] = molecular target: FhCL3 (Fasciola hepatica, UniProt A0A879R2T5); test: Inhibition of recombinant FhCL3, fluorogenic substrate assay (Z-Gly-Pro-Arg-AMC); format: biochemical; settings: for inhibition of enzymatic activity (inhibitor screen, Figure 5), in words: FhCL3, inhibitor 1000-15 nM
Protocol: (§1) Recombinant peptidases were assayed for enzymatic activity using a fluorogenic substrate assay. The reactions were carried out in 0.1 M C-P buffer (pH 7.0) with 1 mM DTT in a final volume of 200 μL, in a black 96-well plate. Each well contained activated enzyme (140 nM) and 20 μM fluorogenic substrate, which was added to start the reaction. All assays were run in triplicate at 37 °C for 1 h. Enzyme activity was monitored by rate of hydrolysis and subsequent release of the AMC group on the synthetic peptide substrates at an excitation wavelength of 370 nm and an emission wavelength of 460 nm, as relative fluorescence units (RFU), in a PolarStar Omega Spectrophotometer (BMG Labtech, Aylesbury, UK). All data were plotted and analysed using MARS Data Analysis Software (BMG Labtech, UK) and GraphPad Prism version 5.
(§2) Commercially available inhibitors of cathepsin B (Ca074 and Ca074-OMe), cathepsin L (L, L1, LII, LIII and LIV), cathepsin K (KI, KII and KIII) and cathepsin S were purchased from Merck Millipore (Cork, Ireland; Supplementary Figure S2). The broad-spectrum papain peptidase inhibitor Z-Phe-Ala-FMK was purchased from Enzo Life Sciences (Exeter, UK). These were used to determine and compare the inhibition constant (Ki) against the recombinant FhCBs and FhCL3. All the assays were carried out in 0.1 M C-P buffer with 1 mM DTT and 0.01% Brij® L23, at the pH corresponding to the optimum for each enzyme in a total 200 µL reaction volume. The peptidases (140 nM) were pre-incubated with the inhibitor (1000-15 nM) at room temperature, for 30 min, before starting the reaction by the addition of the substrate that was optimal for each enzyme (FhCB1, Z-Phe-Arg-AMC; FhCB2 and FhCB3, Z-Val-Ile-Arg-AMC; FhCL3, Z-Gly-Pro-Arg-AMC). Substrate concentrations were equal to KM (shown in Table 1) and the apparent inhibition constant (Ki^app) values were calculated with GraphPad Prism 5, using the Morrison equation for tight binding inhibition (Equation (3)). For competitive inhibitors, such as those used in this study, Ki^app was fitted to a second equation (Equation (4)) from which Ki can be determined. (3) vi/vo=1−([E])+[I]+Kiapp)−([E]+[I]+Kiapp)^2−4[E][I] /2[E] (4) Kiapp=Ki(1+[S]/KM)

[2] = molecular target: FhCB3 (Fasciola hepatica, UniProt A7UNB2); test: Inhibition of recombinant FhCB3, fluorogenic substrate assay (Z-Val-Ile-Arg-AMC); format: biochemical; settings: for inhibition of enzymatic activity (inhibitor screen, Figure 5), in words: FhCB3, inhibitor 1000-15 nM
Protocol: as §1, §2

[3] = molecular target: T1, cathepsin L1 (HsCL1) (Homo sapiens, UniProt P07711); test: Inhibitor screen against human cathepsin L1 control; format: biochemical
T1 construct: purchased Sigma-Aldrich; host or cells: human embryonic kidney cells
Source text: The Schistosoma mansoni cathepsin B1 (SmCB1) was also produced in our laboratory using P. pastoris as described above. The human cathepsin B (HsCB) and cathepsin L1 (HsCL1) were produced in human embryonic kidney cells (Sigma-Aldrich).
as §2
A panel of 12 commercially available cysteine peptidase inhibitors that preferentially target mammalian cathepsin B (Ca074 and Ca074-OMe), cathepsin L (L, L1, LII, LIII and LIV) cathepsin S (S) and cathepsin K (KI, KII and KIII) were screened against the FhCBs, FhCL3 and, as controls, HsCB and HsCL1. The broad-range cysteine peptidase inhibitor Z-Phe-Ala-FMK was also included (Figure 5).
Figure 5 Profile of inhibition of FhCB1, FhCB2, FhCB3 and FhCL3. Commercially available inhibitors of cathepsin B (Ca074 and Ca07a-OMe), cathepsin L (L, L1, LII, LIII and LIV), cathepsin K (KI, KII and KIII), cathepsin S and the broad-spectrum papain peptidase inhibitor Z-Phe-Ala-FMK (A–L) were used to determine and compare the inhibition constant against recombinants FhCB1, FhCB2, FhCB3, FhCL3, HsCB and HsCL1. Activity is represented as the percentage of enzymatic activity observed by hydrolysis of a fluorogenic quenched peptide substrate following a pre-incubation with inhibitor in relation to the activity of the enzyme alone. Error bars indicate standard deviation of three replicates.

[4] = molecular target: FhCB1 (Fasciola hepatica, UniProt Q8I7B2); test: Inhibition of recombinant FhCB1, fluorogenic substrate assay (Z-Phe-Arg-AMC); format: biochemical; settings: for inhibition of enzymatic activity (inhibitor screen, Figure 5), in words: FhCB1, inhibitor 1000-15 nM
Protocol: as §1, §2

[5] = molecular target: FhCB2 (Fasciola hepatica, UniProt A5X493); test: Inhibition of recombinant FhCB2, fluorogenic substrate assay (Z-Val-Ile-Arg-AMC); format: biochemical; settings: for inhibition of enzymatic activity (inhibitor screen, Figure 5), in words: FhCB2, inhibitor 1000-15 nM
Protocol: as §1, §2

[6] = tested on: Cc1cc(=O)oc2cc(NC(=O)[C@H](CCCNC(=N)N)NC(=O)[C@@H]3CCCN3C(=O)CNC(=O)OCc3ccccc3)ccc12; test: purified protein, by the assay type; settings: substrate 2000–4 μM, optimum pH, ± standard deviation, pH 7.0, 37.0 °C
Protocol: (§3) To determine the kinetic constants, Kcat, KM and Kcat/KM of the activated peptidases against the Z-Phe-Arg-AMC, Z-Gly-Pro-Arg-AMC and Z-Val-Ile-Arg-AMC substrates were used at concentrations of 2000–4 μM over a series of 10 dilutions using enzymes, buffer and assay conditions as described above. The kinetic constants, KM and Vmax, were calculated using the Michaelis–Menten equation (Equation (1)) in a non-linear regression analysis of initial reaction velocity against substrate concentration (built into GraphPad Prism 5). The value of KM can then be fitted to Equation (2) to determine the catalytic constant Kcat. (1) ν=d[P]/dt=Vmax[S]/KM+[S] where ν is the initial reaction velocity, [P] is the concentration of the formed product, [S] is the substrate concentration, Vmax is the maximum rate achieved by the system and KM is the Michaelis–Menten constant, which represents the concentration of substrate at which the reaction has a rate equal to half of Vmax. (2) ν=Kcat[Et]{}[S]/KM+[S] where [Et] is the enzyme concentration and Kcat is the catalytic constant, representing the measure of substrate molecules converted to product by enzyme per second.

[7] = tested on: Cc1cc(=O)oc2cc(NC(=O)[C@H](CCCNC(=N)N)NC(=O)[C@H](Cc3ccccc3)NC(=O)OCc3ccccc3)ccc12; test: purified protein, by the assay type; settings: substrate 2000–4 μM, optimum pH, ± standard deviation, pH 7.0, 37.0 °C
Protocol: as §3

[8] = tested on: CC[C@H](C)[C@H](NC(=O)[C@@H](NC(=O)OCc1ccccc1)C(C)C)C(=O)N[C@@H](CCCNC(=N)N)C(=O)Nc1ccc2c(C)cc(=O)oc2c1; test: purified protein, by the assay type; settings: other: FhCB3; substrate 2000–4 μM, optimum pH; ± standard deviation; pH 7.0; 37.0 °C
Protocol: as §3

Sequence of FhCB1 (Q8I7B2 entry or part of it): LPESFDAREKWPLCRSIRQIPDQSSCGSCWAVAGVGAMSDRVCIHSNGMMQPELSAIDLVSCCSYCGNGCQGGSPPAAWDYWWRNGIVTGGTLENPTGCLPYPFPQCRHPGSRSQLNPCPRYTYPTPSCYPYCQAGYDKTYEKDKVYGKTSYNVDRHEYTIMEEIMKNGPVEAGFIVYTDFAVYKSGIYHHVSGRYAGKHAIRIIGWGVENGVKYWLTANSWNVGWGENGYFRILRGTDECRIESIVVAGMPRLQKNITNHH
T1 sequence (P07711 114-333): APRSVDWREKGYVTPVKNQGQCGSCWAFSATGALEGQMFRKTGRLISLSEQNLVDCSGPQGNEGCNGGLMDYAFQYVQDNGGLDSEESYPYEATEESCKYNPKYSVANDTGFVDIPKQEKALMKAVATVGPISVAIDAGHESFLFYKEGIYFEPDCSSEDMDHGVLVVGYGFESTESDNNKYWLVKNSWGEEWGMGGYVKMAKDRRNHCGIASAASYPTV
Sequence of FhCB3 (A7UNB2 entry or part of it): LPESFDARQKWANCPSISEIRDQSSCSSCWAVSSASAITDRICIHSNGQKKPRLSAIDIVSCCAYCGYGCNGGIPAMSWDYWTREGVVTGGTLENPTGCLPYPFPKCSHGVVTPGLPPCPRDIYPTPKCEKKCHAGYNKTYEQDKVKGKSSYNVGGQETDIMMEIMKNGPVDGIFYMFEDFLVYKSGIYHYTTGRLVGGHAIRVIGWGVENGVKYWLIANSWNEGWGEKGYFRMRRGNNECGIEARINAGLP
Sequence of FhCB2 (A5X493 entry or part of it): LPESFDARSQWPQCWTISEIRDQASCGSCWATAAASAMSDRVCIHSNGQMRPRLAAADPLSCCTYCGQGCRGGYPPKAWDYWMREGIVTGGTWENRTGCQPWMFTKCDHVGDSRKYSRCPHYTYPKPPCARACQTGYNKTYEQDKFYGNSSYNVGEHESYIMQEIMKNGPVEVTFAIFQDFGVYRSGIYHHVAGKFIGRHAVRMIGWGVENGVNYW
Sequence of FhCL3 (A0A879R2T5 entry or part of it): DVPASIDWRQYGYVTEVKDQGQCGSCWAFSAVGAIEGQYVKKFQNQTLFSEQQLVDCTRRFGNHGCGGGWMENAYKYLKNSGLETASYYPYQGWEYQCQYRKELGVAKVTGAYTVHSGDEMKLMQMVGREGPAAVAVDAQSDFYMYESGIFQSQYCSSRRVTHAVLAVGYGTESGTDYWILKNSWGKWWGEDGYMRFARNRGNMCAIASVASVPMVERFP

`O=C(NCc1ccccc1)C(Cc1ccccc1)NC(=O)C1OC1C(=O)NCCc1ccc(O)cc1` (centres unmarked) [L] was tested, and the “inhibition of enzymatic activity (inhibitor screen, Figure 5), in words” value (“inhibition of enzymatic activity” below) [1] was “significantly reduced”, the “inhibition of enzymatic activity” value [2] was “significantly reduced” and the “inhibition of enzymatic activity” value [3] was “specificity for HsCL1 over HsCBs”. The “inhibition of enzymatic activity” value [4] was “did not inhibit” and the “inhibition of enzymatic activity” value [5] was “did not inhibit”.

With `CC[C@H](C)[C@H](NS(=O)(=O)c1cccc2ccccc12)C(=O)N[C@H](C=O)Cc1c[nH]c2ccccc12` [LIV] the “inhibition of enzymatic activity” value [3] was “specificity for HsCL1 over HsCBs”.

With FhCL3 (Fasciola hepatica) the Km ([6]; other: FhCL3) was 27 ± 2 µM, the kcat ([6]; other: FhCL3) was 0.5 ± 0.07 s⁻¹ and the kcat/Km ([6]; other: FhCL3) was 17,960 M^-1S^-1.

In the case of `CC(C)C[C@H](NC(=O)OCc1ccccc1)C(=O)NNC(=O)NNC(=O)[C@H](CC(C)C)NC(=O)C(Cc1ccccc1)NC(=O)OC(C)(C)C` (some centres unmarked) [KII], the “inhibition of enzymatic activity” value [1] is reported as “reduced”, the Ki ([1]; recombinant FhCL3 140 nM, 30 min pre-incubation, substrate Z-Gly-Pro-Arg-AMC at KM, optimum pH, ± SEM, read-out: inhibition constant Ki) is reported as 0.7 ± 0.19 nM and the “inhibition of enzymatic activity” value [2] is reported as “abrogated the activity; also recorded: reduced”. The Ki ([2]; recombinant FhCB3 140 nM, 30 min pre-incubation, substrate Z-Val-Ile-Arg-AMC at KM, optimum pH, ± SEM, read-out: inhibition constant Ki) was 227 ± 28.3 nM, the “inhibition of enzymatic activity” value [4] was “weak inhibitors; also recorded: generally poor inhibitors” and the Ki ([4]; recombinant FhCB1 140 nM, 30 min pre-incubation, substrate Z-Phe-Arg-AMC at KM, optimum pH, ± SEM, read-out: inhibition constant Ki) was 466 ± 40.6 nM. For the same compound, the “inhibition of enzymatic activity” value [5] was “no effect; also recorded: generally poor inhibitors; also recorded: not inhibited” and the Ki ([5]; recombinant FhCB2 140 nM, 30 min pre-incubation, substrate Z-Val-Ile-Arg-AMC at KM, optimum pH, ± SEM, read-out: inhibition constant Ki) was over 1000 nM.

In the case of FhCB1 (Fasciola hepatica), the Km ([7]; other: FhCB1) is reported as 69 ± 5 µM, the kcat ([7]; other: FhCB1) is reported as 1.0 ± 0.2 s⁻¹ and the kcat/Km ([7]; other: FhCB1) is reported as 13,596 M^-1S^-1.

With `O=C(NC(Cc1ccccc1)C(=O)NC(Cc1ccccc1)C(=O)CF)OCc1ccccc1` (stereo not drawn) [Inhibitor L1] (Cbz-Phe-Phe-CH2F; configuration not given here) the “inhibition of enzymatic activity” value [2] was “most effective at blocking”, the “inhibition of enzymatic activity” value [3] was “specificity for HsCL1 over HsCBs” and the “inhibition of enzymatic activity” value [4] was “most effective at blocking”.

For `CC(C)C[C@H](NC(=O)OCc1ccccc1)C(=O)NNC(=O)NNC(=O)[C@H](CC(C)C)NC(=O)C(N)Cc1ccccc1` (some centres unmarked) [KIII], the “inhibition of enzymatic activity” value [1] was “reduced”, the “inhibition of enzymatic activity” value [2] was “abrogated the activity; also recorded: reduced” and the “inhibition of enzymatic activity” value [4] was “weak inhibitors; also recorded: generally poor inhibitors”. The “inhibition of enzymatic activity” value [5] was “no effect; also recorded: generally poor inhibitors; also recorded: not inhibited”.

For `CC(C)C[C@H](NC(=O)OCc1ccccc1)C(=O)NCC(=O)CNC(=O)[C@H](CC(C)C)NC(=O)OCc1ccccc1` [KI], the “inhibition of enzymatic activity” value [1] was “reduced”, the “inhibition of enzymatic activity” value [2] was “reduced” and the “inhibition of enzymatic activity” value [4] was “generally poor inhibitors”. For the same compound, the “inhibition of enzymatic activity” value [5] was “generally poor inhibitors; also recorded: not inhibited”.

`COc1ccc(C(=O)ONC(=O)CNC(=O)C(Cc2ccccc2)NC(=O)OCc2ccccc2)cc1` (centres unmarked) [LIII] was tested, and the “inhibition of enzymatic activity” value [3] was “specificity for HsCL1 over HsCBs”.

FhCB3 (Fasciola hepatica) was tested, and the Km ([7]; other: FhCB3) was 27 ± 2 µM, the kcat ([7]; other: FhCB3) was 0.05 ± 0.007 s⁻¹ and the kcat/Km ([7]; other: FhCB3) was 1708 M^-1S^-1. For the same compound, the Km ([6]; other: FhCB3) was 40 ± 4 µM, the kcat ([6]; other: FhCB3) was 0.02 ± 0.002 s⁻¹ and the kcat/Km ([6]; other: FhCB3) was 579 M^-1S^-1. For the same compound, the Km [8] was 42 ± 4 µM, the kcat [8] was 0.1 ± 0.004 s⁻¹ and the kcat/Km [8] was 2266 M^-1S^-1.
